Assay results: patent US6071896A, “Suppression of thromboxane levels by percutaneous administration of aspirin” (Gundersen Clinic, Ltd., priority 1998, dated 2000)
Ends that are not written are not given here.

Columns and labels:
[1] = tested on: PGI2 formation in response to intravenous bradykinin; assay: Urinary PGI-M excretion at rest and after bradykinin infusion, Example 3; assay type: in vivo, human; conditions: 4 subjects; intravenous 100-800 ng/kg/min
Experimental: In an additional 4 subjects, we examined the increase in PGI2 formation in response to intravenous bradykinin prior to and following oral aspirin 75 mg or dermal aspirin 750 mg daily for 14 days. The protocol for bradykinin has been described previously [Clark, N.Engl.J.Med 325:1137 (1991)]. Volunteers were admitted after an overnight fast to the Clinical Research Center. Blood samples were obtained for serum TXB2 and the subject asked to void. Through a peripheral vein, 1 liter of normal saline was infused over 1 hour. After a further hour, bradykinin was infused in incremental doses of 100-800 ng/kg/min, each over 15 mm. The infusion was continued at the maximum tolerated dose for a total period of 2 hr. Blood pressure and heart rate were monitored continuously. Urine was collected in separate 2 hr aliquots prior to, during and following the bradykinin infusion.
^1 The excretion of TXM and PGIM before and following dermal aspirin
750 mg/day or oral aspirin 75 mg/day for 10 days. Urine samples were
collected over 2 hr before (rest) and following the administration of […]

[2] = tested on: PGI2 formation in response to intravenous bradykinin; conditions: on average; cited from earlier work

## RPPGFSPFR [bradykinin]
[1]
  Increase in PGI-M excretion induced by bradykinin: 5.1±6 fold
[2]
  Increase in PGI2 biosynthesis by bradykinin, previous studies: 2-6 fold
